Tested on: rice
Test: Low temperature assay on rice seedlings
Format: in vivo
Description: According to a low temperature assay, we measured parameters including plant height, number of leaf, area of leaf, number of tiller, weight of root at low temperature to completely determine effects of the natural brassinolide analogues on the resistance to low temperature of a plant.
The natural brassinolide analogues, BR1, BR2, BR3, BR4, BR5 and BR6, used herein, were those prepared by the method of Example 1. Respectively the analogues were dissolved into 95% (V/V) ethanol solution, and then diluted with pure water to 1 mg/L, 0.1 mg/L, 0.01 mg/L, 0.001 mg/L and 0.0001 mg/L. In addition, pure water was used as a control.
After rice seeds were disinfected by using 5% sodium hypochlorite solution treatment, they were rinsed with distilled water until their pH>7, placed into a petri dish in a dark incubator, and cultured by using water at 30° C.±2° C. for 9 days. Then respectively the nine-day-old etiolated seedlings of rice were immersed in the above solutions containing different concentrations of the natural brassinolide analogues or pure water, and cultured at the temperature of 1° C., 2° C., 3° C., 4° C. and 5° C. for 24 hr. The parameters including plant height, area of leaf and weight of root after 3, 6, 9 and 12 days and number of leaf and number of tiller after 12 days were measured.

CC[C@@H](C(C)C)[C@@H](O)[C@H](O)[C@@H](C)[C@H]1CCC2C3COC(=O)C4C[C@H](O)[C@H](O)C[C@]4(C)C3CC[C@@]21C (stereo partly shown) [BR2]
Height (0.01 mg/l, 3 °C, 9 days): 7.7 cm
Weight of root (0.01 mg/l, 3 °C, 9 days): 2.9 g
Area of leaf (0.01 mg/l, 3 °C, 12 days): 13.2 cm^2
Height (0.01 mg/l, 3 °C, 12 days): 7.9 cm
Number of leaf (0.01 mg/l, 3 °C, 12 days): 3
Number of tiller (0.01 mg/l, 3 °C, 12 days): 2
Weight of root (0.01 mg/l, 3 °C, 12 days): 2.9 g
Area of leaf (0.01 mg/l, 4 °C, 3 days): 10.8 cm^2
Height (0.01 mg/l, 4 °C, 3 days): 7.1 cm
Weight of root (0.01 mg/l, 4 °C, 3 days): 2.5 g
Area of leaf (0.01 mg/l, 4 °C, 6 days): 12.4 cm^2
Height (0.01 mg/l, 4 °C, 6 days): 7.5 cm
Weight of root (0.01 mg/l, 4 °C, 6 days): 2.6 g
Area of leaf (0.01 mg/l, 4 °C, 9 days): 13.2 cm^2
Height (0.01 mg/l, 4 °C, 9 days): 7.7 cm
Weight of root (0.01 mg/l, 4 °C, 9 days): 2.9 g
Area of leaf (0.01 mg/l, 4 °C, 12 days): 13.5 cm^2
Height (0.01 mg/l, 4 °C, 12 days): 7.8 cm
Number of leaf (0.01 mg/l, 4 °C, 12 days): 3
Number of tiller (0.01 mg/l, 4 °C, 12 days): 2
Weight of root (0.01 mg/l, 4 °C, 12 days): 3.0 g
Area of leaf (0.01 mg/l, 5 °C, 3 days): 10.3 cm^2
Height (0.01 mg/l, 5 °C, 3 days): 7.4 cm
Weight of root (0.01 mg/l, 5 °C, 3 days): 2.8 g
Area of leaf (0.01 mg/l, 5 °C, 6 days): 13.1 cm^2
Height (0.01 mg/l, 5 °C, 6 days): 7.6 cm
Weight of root (0.01 mg/l, 5 °C, 6 days): 3.0 g
Area of leaf (0.01 mg/l, 5 °C, 9 days): 16.4 cm^2
Height (0.01 mg/l, 5 °C, 9 days): 8 cm
Weight of root (0.01 mg/l, 5 °C, 9 days): 3.4 g
Area of leaf (0.01 mg/l, 5 °C, 12 days): 17 cm^2
Height (0.01 mg/l, 5 °C, 12 days): 8.2 cm
Number of leaf (0.01 mg/l, 5 °C, 12 days): 4
Number of tiller (0.01 mg/l, 5 °C, 12 days): 3
Weight of root (0.01 mg/l, 5 °C, 12 days): 3.9 g
Area of leaf (0.1 mg/l, 1 °C, 3 days): 10.1 cm^2
Height (0.1 mg/l, 1 °C, 3 days): 7.0 cm
Weight of root (0.1 mg/l, 1 °C, 3 days): 2.8 g
Area of leaf (0.1 mg/l, 1 °C, 6 days): 11 cm^2
Height (0.1 mg/l, 1 °C, 6 days): 7.2 cm
Weight of root (0.1 mg/l, 1 °C, 6 days): 3.0 g
Area of leaf (0.1 mg/l, 1 °C, 9 days): 12.1 cm^2
Height (0.1 mg/l, 1 °C, 9 days): 7.3 cm
Weight of root (0.1 mg/l, 1 °C, 9 days): 3.4 g
Area of leaf (0.1 mg/l, 1 °C, 12 days): 13.4 cm^2
Height (0.1 mg/l, 1 °C, 12 days): 7.4 cm
Number of leaf (0.1 mg/l, 1 °C, 12 days): 3
Number of tiller (0.1 mg/l, 1 °C, 12 days): 3
Weight of root (0.1 mg/l, 1 °C, 12 days): 3.6 g
Area of leaf (0.1 mg/l, 2 °C, 3 days): 10.4 cm^2
Height (0.1 mg/l, 2 °C, 3 days): 7.1 cm
Weight of root (0.1 mg/l, 2 °C, 3 days): 2.8 g
Area of leaf (0.1 mg/l, 2 °C, 6 days): 11.2 cm^2
Height (0.1 mg/l, 2 °C, 6 days): 7.3 cm
Weight of root (0.1 mg/l, 2 °C, 6 days): 3.0 g
Area of leaf (0.1 mg/l, 2 °C, 9 days): 12.6 cm^2
Height (0.1 mg/l, 2 °C, 9 days): 7.3 cm
Weight of root (0.1 mg/l, 2 °C, 9 days): 3.1 g
Area of leaf (0.1 mg/l, 2 °C, 12 days): 13.6 cm^2
Height (0.1 mg/l, 2 °C, 12 days): 7.4 cm
Number of leaf (0.1 mg/l, 2 °C, 12 days): 3
Number of tiller (0.1 mg/l, 2 °C, 12 days): 3
Weight of root (0.1 mg/l, 2 °C, 12 days): 3.2 g
Area of leaf (0.1 mg/l, 3 °C, 3 days): 10.5 cm^2
Height (0.1 mg/l, 3 °C, 3 days): 7.4 cm
Weight of root (0.1 mg/l, 3 °C, 3 days): 2.5 g
Area of leaf (0.1 mg/l, 3 °C, 6 days): 12 cm^2
Height (0.1 mg/l, 3 °C, 6 days): 7.4 cm
Weight of root (0.1 mg/l, 3 °C, 6 days): 2.7 g
Area of leaf (0.1 mg/l, 3 °C, 9 days): 12.6 cm^2
Height (0.1 mg/l, 3 °C, 9 days): 7.8 cm
Weight of root (0.1 mg/l, 3 °C, 9 days): 2.9 g
Area of leaf (0.1 mg/l, 3 °C, 12 days): 13.4 cm^2
Height (0.1 mg/l, 3 °C, 12 days): 7.9 cm
Number of leaf (0.1 mg/l, 3 °C, 12 days): 3
Number of tiller (0.1 mg/l, 3 °C, 12 days): 2
Weight of root (0.1 mg/l, 3 °C, 12 days): 2.9 g
Area of leaf (0.1 mg/l, 4 °C, 3 days): 10.8 cm^2
Height (0.1 mg/l, 4 °C, 3 days): 7.5 cm
Weight of root (0.1 mg/l, 4 °C, 3 days): 2.5 g
Area of leaf (0.1 mg/l, 4 °C, 6 days): 12.1 cm^2
Height (0.1 mg/l, 4 °C, 6 days): 7.5 cm
Weight of root (0.1 mg/l, 4 °C, 6 days): 2.7 g
Area of leaf (0.1 mg/l, 4 °C, 9 days): 13.4 cm^2
Height (0.1 mg/l, 4 °C, 9 days): 8 cm
Weight of root (0.1 mg/l, 4 °C, 9 days): 2.9 g
Area of leaf (0.1 mg/l, 4 °C, 12 days): 13.8 cm^2
Height (0.1 mg/l, 4 °C, 12 days): 8.1 cm
Number of leaf (0.1 mg/l, 4 °C, 12 days): 3
Number of tiller (0.1 mg/l, 4 °C, 12 days): 2
Weight of root (0.1 mg/l, 4 °C, 12 days): 3.1 g
Area of leaf (0.1 mg/l, 5 °C, 3 days): 11 cm^2
Height (0.1 mg/l, 5 °C, 3 days): 7.5 cm
Weight of root (0.1 mg/l, 5 °C, 3 days): 2.9 g
Area of leaf (0.1 mg/l, 5 °C, 6 days): 12.9 cm^2
Height (0.1 mg/l, 5 °C, 6 days): 7.6 cm
Weight of root (0.1 mg/l, 5 °C, 6 days): 3.2 g
Area of leaf (0.1 mg/l, 5 °C, 9 days): 16.8 cm^2
Height (0.1 mg/l, 5 °C, 9 days): 8.1 cm
Weight of root (0.1 mg/l, 5 °C, 9 days): 3.5 g
Area of leaf (0.1 mg/l, 5 °C, 12 days): 19 cm^2
Height (0.1 mg/l, 5 °C, 12 days): 8.3 cm
Number of leaf (0.1 mg/l, 5 °C, 12 days): 3
Number of tiller (0.1 mg/l, 5 °C, 12 days): 2
Weight of root (0.1 mg/l, 5 °C, 12 days): 4.1 g
Area of leaf (1 mg/l, 1 °C, 3 days): 10 cm^2
Height (1 mg/l, 1 °C, 3 days): 7.2 cm
Weight of root (1 mg/l, 1 °C, 3 days): 2.6 g
Area of leaf (1 mg/l, 1 °C, 6 days): 11.2 cm^2
Height (1 mg/l, 1 °C, 6 days): 7.3 cm
Weight of root (1 mg/l, 1 °C, 6 days): 3.1 g
Area of leaf (1 mg/l, 1 °C, 9 days): 12.4 cm^2
Height (1 mg/l, 1 °C, 9 days): 7.3 cm
Weight of root (1 mg/l, 1 °C, 9 days): 3.2 g
Area of leaf (1 mg/l, 1 °C, 12 days): 13 cm^2
Height (1 mg/l, 1 °C, 12 days): 7.9 cm
Number of leaf (1 mg/l, 1 °C, 12 days): 3
Number of tiller (1 mg/l, 1 °C, 12 days): 3
Weight of root (1 mg/l, 1 °C, 12 days): 3.7 g
Area of leaf (1 mg/l, 2 °C, 3 days): 10.2 cm^2
Height (1 mg/l, 2 °C, 3 days): 7.2 cm
Weight of root (1 mg/l, 2 °C, 3 days): 2.6 g
Area of leaf (1 mg/l, 2 °C, 6 days): 11.7 cm^2
Height (1 mg/l, 2 °C, 6 days): 7.2 cm
Weight of root (1 mg/l, 2 °C, 6 days): 3.0 g
Area of leaf (1 mg/l, 2 °C, 9 days): 12.6 cm^2
Height (1 mg/l, 2 °C, 9 days): 7.3 cm
Weight of root (1 mg/l, 2 °C, 9 days): 3.2 g
Area of leaf (1 mg/l, 2 °C, 12 days): 13 cm^2
Height (1 mg/l, 2 °C, 12 days): 8 cm
Number of leaf (1 mg/l, 2 °C, 12 days): 3
Number of tiller (1 mg/l, 2 °C, 12 days): 3
Weight of root (1 mg/l, 2 °C, 12 days): 3.7 g
Area of leaf (1 mg/l, 3 °C, 3 days): 10.4 cm^2
Height (1 mg/l, 3 °C, 3 days): 7.4 cm
Weight of root (1 mg/l, 3 °C, 3 days): 2.5 g
Area of leaf (1 mg/l, 3 °C, 6 days): 12 cm^2
Height (1 mg/l, 3 °C, 6 days): 7.5 cm
Weight of root (1 mg/l, 3 °C, 6 days): 2.6 g
Area of leaf (1 mg/l, 3 °C, 9 days): 12.1 cm^2
Height (1 mg/l, 3 °C, 9 days): 7.9 cm
Weight of root (1 mg/l, 3 °C, 9 days): 2.9 g
Area of leaf (1 mg/l, 3 °C, 12 days): 13.2 cm^2
Height (1 mg/l, 3 °C, 12 days): 8.1 cm
Number of leaf (1 mg/l, 3 °C, 12 days): 3
Number of tiller (1 mg/l, 3 °C, 12 days): 2
Weight of root (1 mg/l, 3 °C, 12 days): 2.9 g
Area of leaf (1 mg/l, 4 °C, 3 days): 10.9 cm^2
Height (1 mg/l, 4 °C, 3 days): 7.4 cm
Weight of root (1 mg/l, 4 °C, 3 days): 2.5 g
Area of leaf (1 mg/l, 4 °C, 6 days): 12.6 cm^2
Height (1 mg/l, 4 °C, 6 days): 7.5 cm
Weight of root (1 mg/l, 4 °C, 6 days): 2.7 g
Area of leaf (1 mg/l, 4 °C, 9 days): 13.2 cm^2
Height (1 mg/l, 4 °C, 9 days): 8.0 cm
Weight of root (1 mg/l, 4 °C, 9 days): 3.0 g
Area of leaf (1 mg/l, 4 °C, 12 days): 14 cm^2
Height (1 mg/l, 4 °C, 12 days): 8.2 cm
Number of leaf (1 mg/l, 4 °C, 12 days): 3
Number of tiller (1 mg/l, 4 °C, 12 days): 2
Weight of root (1 mg/l, 4 °C, 12 days): 3.2 g
Area of leaf (1 mg/l, 5 °C, 3 days): 11.1 cm^2
Height (1 mg/l, 5 °C, 3 days): 7.4 cm
Weight of root (1 mg/l, 5 °C, 3 days): 2.9 g
Area of leaf (1 mg/l, 5 °C, 6 days): 13.1 cm^2
Height (1 mg/l, 5 °C, 6 days): 7.7 cm
Weight of root (1 mg/l, 5 °C, 6 days): 3.5 g
Area of leaf (1 mg/l, 5 °C, 9 days): 18 cm^2
Height (1 mg/l, 5 °C, 9 days): 8.2 cm
Weight of root (1 mg/l, 5 °C, 9 days): 3.7 g
Area of leaf (1 mg/l, 5 °C, 12 days): 20 cm^2
Height (1 mg/l, 5 °C, 12 days): 8.4 cm
Number of leaf (1 mg/l, 5 °C, 12 days): 3
Number of tiller (1 mg/l, 5 °C, 12 days): 2
Weight of root (1 mg/l, 5 °C, 12 days): 4.5 g
